Results as given in the CATMoS acute toxicity set (Mansouri et al. 2021).

Experiment: GHS categories as the set defines them, by LD50: 1 up to 5, 2 up to 50, 3 up to 300, 4 up to 2000, 5 above 2000 mg/kg
Details: rat; in vivo; po
From the text: […]The data set underlying the modeling effort for this project was initially compiled by NICEATM and U.S. EPA’s CCTE. Briefly, LD50 data were collected from rat acute oral systemic toxicity tests, including limit tests, ranges/confidence intervals, and discrete LD50 values. The full data set included 21,200 LD50 entries for 15,688 substances. […] Data were reviewed to ensure that LD50 values with obvious errors in the extracted data such as unit conversion errors (e.g., comma and decimal separator misplacements) were either fixed or removed. After this review, 16,209 LD50 values remained. Many of the chemicals represented had multiple LD50 entries, requiring that a single representative value per Chemical Abstracts Service Registry Number (CASRN) identifier be defined to facilitate modeling efforts. Based on ATWG feedback and to define the representative LD50 as a protective value while accounting for the distribution across multiple LD50s, the median of the lowest quartile was computed using only discrete LD50 values (omitting limit test data and range and confidence interval data). A detailed summary of the data compilation is available online on the NICEATM webpage dedicated to the collaborative modeling project (NTP 2020).
[…][…] For categorical designations, limit test and range/confidence interval LD50 data were integrated wherever possible. As such, the number of chemicals with end point values/calls varies across the modeling end points (Table 3) based on whether chemicals had representative LD50 values and/or other data. If a chemical had both, the representative value was used to determine categorical calls rather than limit test data. Some data were useable only for certain end points and categories depending on the thresholds. For example, ranges that spanned multiple hazard categories were considered only for the binary (very toxic/nontoxic) end points and omitted from rendering a determination for hazard category assignment.
[…]The final data set comprising 11,992 chemicals was split into training and evaluation sets […], respectively. This process was performed semirandomly by ordering chemicals based on the five end points (categorical and continuous LD50 values) and partitioning every fourth record into the evaluation set accordingly. This approach was taken to ensure an equivalent distribution of the LD50 values and the different hazard categories between the training and the evaluation sets without supervised sampling of the chemicals based on structures (Figure 1A). The sources of the chemical structures were also kept equivalent between the two sets, with chemical structures obtained from DSSTox, being the highest quality, representing over 75% of each set (Figure 1B).
In the case of `CC(=O)c1ccc2c(c1)OC(C)C(=O)N2C` (stereo not drawn), the GHS category is reported as 5. Work on `Cc1ccc(C(=O)c2cc(O)c(O)c([N+](=O)[O-])c2)cc1` yielded a GHS category of 5. `CC(=O)O[C@]1(C(C)=O)CC[C@H]2[C@@H]3C=C(Cl)C4=CC(=O)[C@@H]5C[C@@H]5[C@]4(C)[C@H]3CC[C@@]21C` gave a GHS category of 5. With `CC(C)OC(=O)CCC(=O)OC(C)C` the GHS category was 5. In the case of `COc1cc2nc(N3CCCC(N(C)Cc4ccc5c(c4)OCO5)C3)nc(N)c2cc1OC` (stereo not drawn), the GHS category is reported as 4. Molecule `Cc1cccc(C)c1NC(=O)C1CCCCN1C` (stereo not drawn) has a GHS category of 5. `Fc1ccccc1C1c2cc3c(cc2CCN1c1ccccc1)OCO3` (stereo not drawn) showed a GHS category of 4. For `CC(C)(CO)C1OCC2(CO1)COC(C(C)(C)CO)OC2` (stereo not drawn), the GHS category was 5. With `O=C(Nc1ccccc1-c1ccc(Cl)cc1)c1cccnc1Cl` the GHS category was 5. `CNC(=O)c1c(I)c(NC(=O)CCCCC(=O)Nc2c(I)c(C(=O)O)c(I)c(C(=O)NC)c2I)c(I)c(C(=O)O)c1I` showed a GHS category of 5. In the case of `COc1ccc(N=NC(C(C)=O)C(=O)Nc2ccccc2OC)c([N+](=O)[O-])c1` (stereo not drawn), the GHS category is reported as 5. `ClC1C(Br)C(Br)C(Br)C(Br)C1Br` (stereo not drawn) gave a GHS category of 5. `Cc1ccc(S(=O)(=O)NCCCCCC(=O)O)cc1` gave a GHS category of 5. Molecule `O=c1nc(-c2cccnc2)[nH]c2ncccc12` has a GHS category of 4. Molecule `O=C(O)c1cc(O)ccc1Nc1cccc(C(F)(F)F)c1` has a GHS category of 4. `CCCCCCCCCCCCCCCNCCCCCCCCCCCCCCC` gave a GHS category of 5. `O=C(NNc1cccc(C(F)(F)F)c1)c1cccnc1Cl` showed a GHS category of 4. In the case of `C[C@@H]1[C@@H](c2ccc(Cl)cc2)SC(=O)N1C(=O)NC1CCCCC1` (single isomer, unassigned), the GHS category is reported as 5. `CCCc1c(Cc2ccc(-c3ccccc3-c3nn[nH]n3)cc2)cnc2ncnn12` showed a GHS category of 4. In the case of `Cc1cccc2ncc(C(=O)N3CCCC3)c(=O)n12`, the GHS category is reported as 3. For `CCOC(=O)C(=O)Nc1ccncn1`, the GHS category was 4. `O=S(=O)(O)c1cc(O)c2c(N=Nc3ccc(Nc4ccccc4)c4c(S(=O)(=O)O)cccc34)cc(S(=O)(=O)O)cc2c1` showed a GHS category of 5. Work on `O=C(O)CNC(c1ccccc1)c1ccc(F)cc1` (stereo not drawn) yielded a GHS category of 4. `CCCCCCCCCNP1(=S)OCc2cc([N+](=O)[O-])ccc2O1` (stereo not drawn) showed a GHS category of 3. With `CCCCCCCCCCCc1ccccc1` the GHS category was 5. Work on `CN(C(=O)Cl)c1nnc(C(C)(C)C)s1` yielded a GHS category of 4. `CCCCC(CC)CN1CN(CC(CC)CCCC)CC(C)(N)C1` (stereo not drawn) showed a GHS category of 4. In the case of `CN1C(=O)CCC1=O`, the GHS category is reported as 5. For `NC(=O)CC1(CC(=O)O)CCCCC1`, the GHS category was 5. For `CNc1ncnc2c1ncn2Cc1ccccc1F`, the GHS category was 4. For `CCCCCOC=O`, the GHS category was 5. `CCOC(=O)/C=C(C)/C=C/C=C(C)/C=C/c1c(C)cc(OC)c(C)c1C` showed a GHS category of 5. Work on `CCCO[Si](OCCC)(OCCC)OCCC` yielded a GHS category of 5. Work on `FC(F)(F)C(F)(F)C(F)(F)C(F)(F)C(F)(F)C(F)(F)F` yielded a GHS category of 5. Molecule `O=C1OC(=O)c2c(Br)c(Br)c(Br)c(Br)c21` has a GHS category of 5. `CC1NC(=S)C(C(O)O)C(O)C1C` (stereo not drawn) showed a GHS category of 5. `FC(F)(F)c1cccc(C(F)(F)F)c1` showed a GHS category of 5. `CCCCCCC(=O)OC` showed a GHS category of 5. With `Nc1cc(C(=O)NCC(O)CO)cc(C(=O)NCC(O)CO)c1` (stereo not drawn) the GHS category was 5. For `CCOc1ccc(NC(=O)c2cc3ccccc3cc2O)cc1`, the GHS category was 5. Work on `CCCc1nc2ccnn2c(Cl)c1Cc1ccc(-c2ccccc2-c2nn[nH]n2)cc1` yielded a GHS category of 4. For `CCCCC(C)OP(=S)(OCC)OCC` (stereo not drawn), the GHS category was 4. Molecule `O=C(O)COc1ccc(Cl)cc1CO` has a GHS category of 5. `CN1C2=CC(=O)C(=NNC(N)=O)C=C2CC1S(=O)(=O)O` (stereo not drawn) showed a GHS category of 5. Molecule `Cc1cc(C(C)(C)C)c(OP2COC3(COP(Oc4c(C(C)(C)C)cc(C)cc4C(C)(C)C)OC3)OC2)c(C(C)(C)C)c1` (stereo not drawn) has a GHS category of 5. In the case of `C[Si](C)(C)[Si](C)(C)C`, the GHS category is reported as 5. `CC(C)(c1ccccc1)c1ccc(Nc2ccc(C(C)(C)c3ccccc3)cc2)cc1` showed a GHS category of 5. For `CCNC(=O)[C@@H]1CCCN1C(=O)[C@H](CCCNC(=N)N)NC(=O)[C@H](CC(C)C)NC(=O)[C@@H](CC(C)C)NC(=O)[C@H](Cc1ccc(O)cc1)NC(=O)[C@H](CO)NC(=O)[C@H](Cc1c[nH]c2ccccc12)NC(=O)[C@H](Cc1cnc[nH]1)NC(=O)[C@@H]1CCC(=O)N1`, the GHS category was 5. Work on `CC(C)OC(=O)N[C@H](C(=O)N[C@H](C)c1nc2ccc(F)cc2s1)C(C)C` yielded a GHS category of 5. Molecule `CC(O)CN(CC(C)O)C(=O)CCCCC(=O)N(CC(C)O)CC(C)O` (stereo not drawn) has a GHS category of 5. For `CCOC(=O)COc1cc(-c2nn(C)c(OC(F)F)c2Cl)c(F)cc1Cl`, the GHS category was 5. `C=CC(C)(O)CCC=C(C)CCC=C(C)C` (stereo not drawn) gave a GHS category of 5. `C=CC(C)(O)CCC=C(C)CC(C)C` (stereo not drawn) gave a GHS category of 5. `CCOP(=O)(CN(CCO)CCO)OCC` showed a GHS category of 5. In the case of `C=C(C)COCC/C=C\CC`, the GHS category is reported as 5. For `O=C(NC(=O)c1c(F)cccc1F)Nc1cc(Cl)c(F)c(Cl)c1F`, the GHS category was 5. Work on `CC(C)OC(=O)Nc1nc(N2CC=CCC2)cc2nc(=O)on12` yielded a GHS category of 5. `C=C(C)C(CC=C(C)C)COC(=O)C=C(C)C` (stereo not drawn) gave a GHS category of 5. Work on `O=C(O)CCCCCNc1nc(NCCCCCC(=O)O)nc(NCCCCCC(=O)O)n1` yielded a GHS category of 5. `CCOC(=O)COc1nn(-c2cccc(C(F)(F)F)c2)c2ncccc12` showed a GHS category of 4. For `CCCCCCCCCCCCOC(=O)C=CC(=O)OCCCCCCCCCCCC`, the GHS category was 5. Work on `CCCCCCCCC(=O)OCC(CC)(COC(=O)CCCCCCCC)COC(=O)CCCCCCCC` yielded a GHS category of 5. For `CC1(C)CC2(CC(C)(C)N1)OC1(CCCCCCCCCCC1)NC2=O`, the GHS category was 5. `COCc1ccc(C=O)o1` showed a GHS category of 5. Molecule `CC(C)CCCCCCCCCCOC(=O)CCCCC(=O)OCCCCCCCCCCC(C)C` has a GHS category of 5. In the case of `CCN(C(=O)CCCSc1nnnn1C)c1ccccc1`, the GHS category is reported as 4. `CCCOC(=O)[C@H](C)O` gave a GHS category of 5. Work on `O=C(OCCOCCO)c1cc(O)ccc1Nc1ccc(O)c(C(F)(F)F)c1` yielded a GHS category of 4. With `CC(C)=CCCC(C)C=O` (stereo not drawn) the GHS category was 5. In the case of `CCOC(=O)C(=O)Nc1cc(OC)nc(-c2ccccc2)n1`, the GHS category is reported as 4. `CC1CCC(C(C)(C)O)CC1` (stereo not drawn) gave a GHS category of 5. In the case of `CC(C)(O)C(=O)c1ccc(Cc2ccc(C(=O)C(C)(C)O)cc2)cc1`, the GHS category is reported as 5. With `CC(C)c1c(C(=O)Nc2ccccc2)c(-c2ccccc2)c(-c2ccc(F)cc2)n1CC[C@@H]1C[C@H](CC(=O)OC(C)(C)C)OC(C)(C)O1` the GHS category was 5. Molecule `CCCCCCCCCCCCCCCCCCCCCC(=O)Nc1ccn([C@@H]2O[C@H](CO)[C@@H](O)[C@@H]2O)c(=O)n1` has a GHS category of 4. In the case of `Nc1ccc(C2(c3ccc(N)c(Cl)c3)c3ccccc3-c3ccccc32)cc1Cl`, the GHS category is reported as 5. With `CCCNC(=O)c1cnc2ccccn2c1=O` the GHS category was 3. With `CC(=O)OCC(=O)[C@@]1(O)CC[C@H]2[C@@H]3C[C@H](C)C4=CC(=O)C=C[C@]4(C)[C@H]3[C@@H](O)C[C@@]21C` the GHS category was 5. `CCC=CCC=CCC=CCC=CCC=CCCCCCC(=O)O` gave a GHS category of 5. `Cc1ccc(-c2c(Cl)nc(C#N)n2S(=O)(=O)N(C)C)cc1` gave a GHS category of 5. `CC(C)=CCCC(C)=CC1OCCO1` gave a GHS category of 5. `Cc1cccc2ncc(C(=O)NCC(C)(C)C)c(=O)n12` gave a GHS category of 3. With `O=[N+]([O-])c1ccc2c(c1)COP(=S)(N1CCCC1)O2` (stereo not drawn) the GHS category was 3. In the case of `CCOC(=O)CC1(C)OCCO1`, the GHS category is reported as 5. Work on `O=C1CCCCCN1C(=O)NCCCCCCNC(=O)N1CCCCCC1=O` yielded a GHS category of 5. Molecule `CC1CC(C)(C)OC(Cn2cncn2)(c2cc3ccccc3o2)O1` (stereo not drawn) has a GHS category of 4. `CCCCCCCCOC(=O)C(C)C` gave a GHS category of 5. For `CCC(=O)O[C@]1(C(=O)SCF)[C@H](C)C[C@H]2C3C[C@H](F)C4=CC(=O)C=C[C@]4(C)[C@@]3(F)[C@@H](O)C[C@@]21C` (stereo partly drawn), the GHS category was 5. Molecule `COc1ccc2c(c1)CCN(c1ccccc1)C2c1ccc(Cl)cc1` (stereo not drawn) has a GHS category of 4. Molecule `Cc1ccc2c(c1)C(=O)C(C)C2` (stereo not drawn) has a GHS category of 5. `COc1c(C)c(O)c(C)c(C)c1C(=O)Oc1c(C)c(C)c(C(=O)Oc2c(C)c(C)c(C(=O)O)c(OC)c2C)c(O)c1C` gave a GHS category of 4. `CCCCOC(=O)C(C)O` (stereo not drawn) gave a GHS category of 5. For `CCN(CC)CCC1=NC(=C2C=CC=CC2=O)NO1`, the GHS category was 5. Work on `O=c1[nH]c(=O)n([C@H]2O[C@H](CO)[C@@H](O)[C@@H]2O)cc1/C=C\Br` yielded a GHS category of 5. For `CCCCCCCCCCCCOCCOCCOCCOCCOCCOCCOCCOCCOCCOCCOCCOCCOCCOCCOCCOCCOCCOCCOCCOCCOCCOCCOCCO`, the GHS category was 5. Work on `C=C(C)CC1CCCCCCCCCCC1=O` (stereo not drawn) yielded a GHS category of 5. Work on `CCCNC(=O)Cc1cnc2cccc(C)n2c1=O` yielded a GHS category of 3. In the case of `CC(C)CCCCCCCCCCCCCCCO`, the GHS category is reported as 5. Molecule `CC(=O)C1(c2ccccc2)CCN(CCCOc2ccc3c(c2)NC(=O)CC3)CC1` has a GHS category of 4.
